# Measurements: publication PMC6155387, “Alkoxy and Enediyne Derivatives Containing 1,4-Benzoquinone Subunits—Synthesis and Antitumor Activity” (Molecules : A Journal of Synthetic Chemistry and Natural …, 2017)
# Assays:
# Assay type in all cases: cell-based, human
# [1] = system: SNB-19; assay: antiproliferative activity (WST-1), glioblastoma SNB-19; conditions: for IC50: Homo sapiens, glioblastoma SNB-19, 72 h, WST-1, Neg: negative in the concentration used, read-out: IC50 ± SD SNB-19; for SI (IC50 HFF-1/IC50 cancer line) SNB-19: selectivity index, HFF-1 vs SNB-19
# Description: (§1) Biological activity of the tested compounds was assessed in vitro using cultured cell lines: melanoma C-32 (ATCC, Rockville, MD, USA), glioblastoma SNB-19 (DSMZ, Braunschweig, Germany), breast cancer MDA-MB-231 (ATCC, Rockville, MD, USA), and normal human fibroblasts derived from foreskin HFF-1 (ATCC, Rockville, MD, USA). Cell cultures were maintained using DMEM (Lonza, Basel, Switzerland) supplemented with 10% fetal bovine serum (FBS) (Biological Industries Cromwell, CT, USA) and a mixture of penicillin (10,000 U/mL) and streptomycin (10 mg/mL) (Lonza, Basel, Switzerland).
# (§2) Cells were cultured using 96-well plates (Nunc Thermo Fisher Scientific, Waltham, MA, USA). Cells were seeded (5 × 10^3 cells/well) and incubated for 24 h in a standard incubator (37 °C, 5% CO2, relative humidity 95%). Subsequently, the medium was replaced with a fresh aliquot containing an examined compound (0.01; 0.05; 0.1; 0.5; 1; 5; 10; 50; 100 µg/mL), and cells were further incubated for another 72 h. Upon the conclusion of incubation, a CVDE test (Aniara, West Chester, OH, USA) using crystal violet was performed to assess the relative number of cells in the culture. A WST-1 test (Roche) was performed to examine the metabolic activity of cells and test for the presence of LDH in the medium (Roche Diagnostics GmbH, Mannheim, Germany), allowing for the assessment of the relative number of dead cells (i.e., cytotoxicity of the examined compound). UVM340 microplate readers (BIOGENET, Józefów, Poland) were used to read absorbance values.
# (§3) WST-1 colorimetric assay for cell proliferation (Roche Diagnostics GmbH, Mannheim, Germany, reagent kit cat. 11644807001) is based on the viable cells’ ability to cleave the bright red-colored stable tetrazolium salt WST-1 to dark red soluble formazan. This bioreduction occurs under the influence of mitochondrial dehydrogenases (depends mostly on production of NAD(P)H in viable cells). The amount of formazan dye formed correlates directly with the number of metabolically active cells in the culture and is measured by absorbance (λ = 450 nm) following 1 h incubation of cells with the reagent.
# [2] = system: HFF-1; assay: antiproliferative activity (WST-1), normal fibroblasts HFF-1; conditions: normal fibroblasts HFF-1, 72 h, Neg: negative in the concentration used; for IC50: Homo sapiens, read-out: IC50 ± SD HFF-1
# Description: as §1, §2, §3
# [3] = system: MDA-MB-231; assay: antiproliferative activity (WST-1), breast cancer MDA-MB-231; conditions: for IC50: Homo sapiens, read-out: IC50 ± SD MDA-MB-231; for SI (IC50 HFF-1/IC50 cancer line) MDA-MB-231: selectivity index, HFF-1 vs MDA-MB-231
# Description: as §1, §2, §3
# [4] = system: C-32; assay: antiproliferative activity (WST-1), melanoma C-32; conditions: for IC50: Homo sapiens, C32, melanoma C-32, 72 h, WST-1, Neg: negative in the concentration used, read-out: IC50 ± SD C-32; for SI (IC50 HFF-1/IC50 cancer line) C-32: selectivity index, HFF-1 vs C-32
# Description: as §1, §2, §3
# [5] = breast cancer MDA-MB-231, 72 h, WST-1, Neg: negative in the concentration used
Compound,IC50 [1],SI (IC50 HFF-1/IC50 cancer line) SNB-19 [1],IC50 [2],"IC50 [3, 5]",SI (IC50 HFF-1/IC50 cancer line) MDA-MB-231 [3],IC50 [4],SI (IC50 HFF-1/IC50 cancer line) C-32 [4],"IC50 ± SD MDA-MB-231 [3, 5]",IC50 ± SD HFF-1 [2],"times more activity against the C-32 cell compared to cisplatin ([4]; C-32, ratio of IC50 vs cisplatin)","times more activity against the C-32 cell compared to (Z)-4-octen-2,6-diyn-1,8-diol (22) ([4]; C-32, ratio of IC50 vs compound 22)"
"O=C1C(Cl)=C(Cl)C(=O)c2ccccc21 [Compound 1, 2,3-Dichloro-1,4-naphtoquinon, reference compound]",26.6 ± 0.5 µM,0.59,15.6 ± 0.3 µM,31.9 ± 2.7 µM,0.49,25 ± 0.3 µM,0.62,–,–,–,–
"Cc1ccc2c(n1)C(=O)C(Cl)=C(Cl)C2=O [Compound 3, 6,7-dichloro-2-methyl-5,8-quinolinedione]",15.9 ± 0.3 µM,0.63,10 ± 1.4 µM,23.3 ± 0.3 µM,0.43,10.5 ± 0.8 µM,0.95,–,–,–,–
"CCCOC1=C(Cl)C(=O)c2ccccc2C1=O [Compound 4, 2-Chloro-3-propoxy-1,4-naphtoquinon]",18.4 ± 1.7 µM,0.80,14.8 ± 0.9 µM,1.4 ± 0.3 µM,10.57,16.8 ± 0.3 µM,0.88,–,–,–,–
"C=CCOC1=C(Cl)C(=O)c2ccccc2C1=O [Compound 5, 2-Chloro-3-(2-propenoxy)-1,4-naphthoquinon]",3.8 ± 0.1 µM,1.00,3.8 ± 0.8 µM,6.9 ± 1.9 µM,0.55,4 ± 0.1 µM,0.95,–,–,–,–
"C#CCOC1=C(Cl)C(=O)c2ccccc2C1=O [Compound 6, 2-Chloro-3-(2-propynoxy)-1,4-naphthoquinon]",8.4 ± 1.2 µM,0.46,3.9 ± 0.5 µM,21 ± 1.5 µM,0.19,3.2 ± 0.6 µM,1.22,–,–,–,–
"CCCOC1=C(Cl)C(=O)c2ccc(C)nc2C1=O [Compound 10, 6-Chloro-2-methyl-7-propoxy-5,8-quinolinedione]",19.8 ± 1.4 µM,0.80,15.8 ± 1.8 µM,22.2 ± 1.4 µM,0.71,26.8 ± 1.9 µM,0.59,–,–,–,–
"C=CCOC1=C(Cl)C(=O)c2ccc(C)nc2C1=O [Compound 11, 6-Chloro-2-methyl-7-(2-propenoxy)-5,8-quinolinedione]",33.8 ± 1.3 µM,0.59,20.1 ± 1.2 µM,24.6 ± 2.9 µM,0.82,168 ± 6.2 µM,0.12,–,–,–,–
"C#CCOC1=C(Cl)C(=O)c2ccc(C)nc2C1=O [Compound 12, 6-Chloro-2-methyl-7-(2-propynoxy)-5,8-quinolinedione]",19.5 ± 1 µM,0.72,14 ± 2.4 µM,17.2 ± 2.5 µM,0.81,208 ± 4.6 µM,0.07,–,–,–,–
"CCCOC1=C(OCCC)C(=O)c2ccccc2C1=O [Compound 13, 2,3-Dipropoxy-1,4-naphtoquinon]",19.9 ± 1.4 µM,0.54,10.8 ± 0.5 µM,22.6 ± 2.3 µM,0.48,22.6 ± 0.8 µM,0.48,–,–,–,–
"C=CCOC1=C(OCC=C)C(=O)c2ccccc2C1=O [Compound 14, 2,3-di(2-Propenoxy)-1,4-naphthoquinon]",19.6 ± 1 µM,0.22,4.4 ± 0.9 µM,17.9 ± 0.8 µM,0.25,10.6 ± 0.6 µM,0.42,–,–,–,–
"C#CCOC1=C(OCC#C)C(=O)c2ccccc2C1=O [Compound 15, 2,3-di(2-Propynoxy)-1,4-naphthoquinon]",18.6 ± 0.7 µM,0.73,–,–,–,21.7 ± 0.6 µM,0.62,–,–,–,–
"CCCOC1=C(OCCC)C(=O)c2nc(C)ccc2C1=O [Compound 19, 2-Methyl-6,7-dipropoxy-5,8-quinolinedione]",25.7 ± 1.4 µM,0.69,17.8 ± 1.8 µM,71.3 ± 3.9 µM,0.25,131 ± 2.4 µM,0.14,–,–,–,–
"C=CCOC1=C(OCC=C)C(=O)c2nc(C)ccc2C1=O [Compound 20, 2-Methyl-6,7-di(2-propenoxy)-5,8-quinolinedione]",16.6 ± 3 µM,0.04,0.6 ± 0.2 µM,26.8 ± 1.2 µM,0.02,18.9 ± 1.7 µM,0.03,–,–,–,–
"C#CCOC1=C(OCC#C)C(=O)c2nc(C)ccc2C1=O [Compound 21, 2-Methyl-6,7-di(2-propynoxy)-5,8-qunolinedione]",24.5 ± 1.1 µM,0.59,14.5 ± 2.6 µM,23.2 ± 1.5 µM,0.63,21.1 ± 1.2 µM,0.69,–,–,–,–
"OCC#C/C=C\C#CCO [Compound 22, (Z)-oct-4-ene-2,6-diyne-1,8-diol]",250 ± 4.3 µM,1.04,260 ± 5.6 µM,–,1.85,159 ± 4.6 µM,1.64,Neg,–,–,–
"O=C1C(Cl)=C(OCC#CC=CC#CCO)C(=O)c2ccccc21 [Compound 23, 2-Chloro-3-(8-hydroxy-4-octen-2,6-diynyloxy)-1,4-naphthoquinon]",186 ± 5 µM,0.52,97.6 ± 4 µM,22.5 ± 2.4 µM,–,145 ± 4.8 µM,0.67,–,–,–,–
"O=C1C(Cl)=C(OCC#CC=CC#CCO)C(=O)c2ncccc21 [Compound 24, 6-Chloro-7-(8-hydroxy-4-octen-2,6-diynyloxy)-5,8-quinolinedione]",2.4 ± 0.1 µM,–,–,110 ± 8.1 µM,–,3.1 ± 0.1 µM,–,–,Neg,5 times,51 times
